Experimental data from PubChem BioAssay (NCI).
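A five-concentration, 48-hour dose response in 96-well plates underlies each endpoint, interpolated linearly between surrounding concentrations. Definition used: TGI = concentration required for complete inhibition of growth.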

How the values were obtained:
Assay in all cases: NCI tumour cell line growth inhibition, 48 h
786-0 renal = tested on: 786-0 renal
A498 renal = tested on: A498 renal
A549 NSCLC = tested on: A549 NSCLC
ACHN renal = tested on: ACHN renal
BT-549 breast = tested on: BT-549 breast
CAKI-1 renal = tested on: CAKI-1 renal
CCRF-CEM leukemia = tested on: CCRF-CEM leukemia
COLO 205 colon = tested on: COLO 205 colon
DU-145 prostate = tested on: DU-145 prostate
EKVX NSCLC = tested on: EKVX NSCLC
HCC-2998 colon = tested on: HCC-2998 colon
HCT-116 colon = tested on: HCT-116 colon
HCT-15 colon = tested on: HCT-15 colon
HL-60(TB) leukemia = tested on: HL-60(TB) leukemia
HOP-62 NSCLC = tested on: HOP-62 NSCLC
HOP-92 NSCLC = tested on: HOP-92 NSCLC
HS 578T breast = tested on: HS 578T breast
HT29 colon = tested on: HT29 colon
IGROV1 ovarian = tested on: IGROV1 ovarian
K-562 leukemia = tested on: K-562 leukemia
KM12 colon = tested on: KM12 colon
LOX IMVI melanoma = tested on: LOX IMVI melanoma
M14 melanoma = tested on: M14 melanoma
MALME-3M melanoma = tested on: MALME-3M melanoma
MCF7 breast = tested on: MCF7 breast
MDA-MB-231 breast = tested on: MDA-MB-231 breast
MDA-MB-435 = tested on: MDA-MB-435
MDA-N = tested on: MDA-N
MOLT-4 leukemia = tested on: MOLT-4 leukemia
NCI-H226 lung = tested on: NCI-H226 lung
NCI-H23 lung = tested on: NCI-H23 lung
NCI-H460 lung = tested on: NCI-H460 lung
NCI-H522 lung = tested on: NCI-H522 lung
NCI/ADR-RES ovarian = tested on: NCI/ADR-RES ovarian
OVCAR-3 ovarian = tested on: OVCAR-3 ovarian
OVCAR-4 ovarian = tested on: OVCAR-4 ovarian
OVCAR-5 ovarian = tested on: OVCAR-5 ovarian
OVCAR-8 ovarian = tested on: OVCAR-8 ovarian
PC-3 prostate = tested on: PC-3 prostate
RPMI-8226 leukemia = tested on: RPMI-8226 leukemia
RXF 393 renal = tested on: RXF 393 renal
SF-268 CNS = tested on: SF-268 CNS
SF-295 CNS = tested on: SF-295 CNS
SF-539 CNS = tested on: SF-539 CNS
SK-MEL-2 melanoma = tested on: SK-MEL-2 melanoma
SK-MEL-28 melanoma = tested on: SK-MEL-28 melanoma
SK-MEL-5 melanoma = tested on: SK-MEL-5 melanoma
SK-OV-3 ovarian = tested on: SK-OV-3 ovarian
SN12C renal = tested on: SN12C renal
SNB-19 CNS = tested on: SNB-19 CNS
SNB-75 CNS = tested on: SNB-75 CNS
SR leukemia = tested on: SR leukemia
SW-620 colon = tested on: SW-620 colon
T-47D breast = tested on: T-47D breast
TK-10 renal = tested on: TK-10 renal
U251 CNS = tested on: U251 CNS
UACC-257 melanoma = tested on: UACC-257 melanoma
UACC-62 melanoma = tested on: UACC-62 melanoma

Measured: TGI

COC(=O)CC1C(C)(C)C(=O)C2CC3=C4CC(=O)OC(c5ccoc5)C4(C)CCC3C1(C)C2=O (stereo not drawn)
> 100 µM: 786-0 renal | A498 renal | A549 NSCLC | ACHN renal | BT-549 breast | CAKI-1 renal | CCRF-CEM leukemia | COLO 205 colon | DU-145 prostate | EKVX NSCLC | HCC-2998 colon | HCT-116 colon | HCT-15 colon | HL-60(TB) leukemia | HOP-62 NSCLC | HOP-92 NSCLC | HS 578T breast | HT29 colon | IGROV1 ovarian | K-562 leukemia | KM12 colon | LOX IMVI melanoma | M14 melanoma | MALME-3M melanoma | MCF7 breast | MDA-MB-231 breast | MDA-MB-435 | MDA-N | MOLT-4 leukemia | NCI-H226 lung | NCI-H23 lung | NCI-H460 lung | NCI-H522 lung | NCI/ADR-RES ovarian | OVCAR-3 ovarian | OVCAR-4 ovarian | OVCAR-5 ovarian | OVCAR-8 ovarian | PC-3 prostate | RPMI-8226 leukemia | RXF 393 renal | SF-268 CNS | SF-295 CNS | SF-539 CNS | SK-MEL-2 melanoma | SK-MEL-28 melanoma | SK-MEL-5 melanoma | SK-OV-3 ovarian | SN12C renal | SNB-19 CNS | SNB-75 CNS | SR leukemia | SW-620 colon | T-47D breast | TK-10 renal | U251 CNS | UACC-257 melanoma | UACC-62 melanoma
